Measured values published in patent US20190255144A1, “SPECIFIC OLIGOPEPTIDES AS ANTI-ANGIOGENIC DRUGS” (NEURONAX, priority 2014, published 2019).
Where “and” joins values, the source holds several entries; their conditions need not be identical. Equal entries are not always repeated. Entries after “also recorded” stand apart in the source; their conditions may differ.

Legend:
[1] = tested on: genes in experimental tumors obtained from the CAM; assay: Quantitative analysis of the mRNA in experimental tumors obtained from CAM; assay type: in vivo, chicken; conditions: for Mean RQ ANGPT1 / Mean RQ ANGPT2 / Mean RQ CD36 / Mean RQ FGF2 / Mean RQ ITGB1 / Mean RQ KDR / Mean RQ PDGFB / Mean RQ PDGFRB / Mean RQ PLAU / Mean RQ TEK / Mean RQ TIE-1 / Mean RQ TIMP1 / Mean RQ TIMP4 / Mean RQ VEGFA: CAM tumors, relative expression, control = 1, triplicate; for Increase of expression of genes coding for the receptors (ITGB1, PDGFRβ, KDR, TIE-1, TIE-2, CD36) in relation to the control: experimental tumors obtained from the CAM
Excerpt: These receptors belong to the chicken species and are therefore found in the host vessels. […] Furthermore, the overexpression of ITGB1 at the same time as that of CD36 differentiates the peptide according to the invention (NX) from the TSP-1 (TSP).

[2] = tested on: HBMEC cells; assay: ELISA Cell Death test for induction of the apoptosis on the HBMEC cells; assay type: cell-based, human; conditions: basal medium
Method: The apoptosis process is accompanied by the fragmentation of DNA and thus generates soluble nucleosomes (cytoplasmic histones associated with fragmented DNA), which can be metered by an immunoenzymatic method, ELISA Cell Death Plus (Enzyme-Linked ImmunoSorbent Assay) Kit (Roche Molecular Diagnostics, France) according to the recommendations of the supplier. The HBMEC cells were inoculated in a 24-well plate at the density of 5.10^3 cells/wells and allowed to stand for 24 hours. The cells are cultivated in a basal medium, i.e., in the absence of growth factors, which is changed before they are exposed to various treatments for 24 hours. They are then recovered and then centrifuged with 200 g for 5 minutes. The cells are then counted, and then adjusted to 3.10^4 cells/mL in PBS. A new centrifuging with 200 g is carried out for 10 minutes. The supernatant is removed, and the cell pellet is taken up in 200 μl of lysis buffer before incubation for 30 minutes at ambient temperature. After a new centrifuging for 10 minutes at 1,400 rpm, 20 μL of supernatant is distributed in wells coated with streptavidin and each condition is carried out in duplicate. 80 μL of the immunoreagent solution is added into each well. […] The reaction is then halted by adding 100 μL of ABTS stop solution, and the results are then analyzed using a 405-nm plaque reader. […]

[3] = tested on: tumors obtained from U87-MG grafts on the CAM; assay: Experimental tumors from U87-MG grafts on the CAM: vascularization, Ki-67, vimentin; assay type: in vivo, chicken embryo; conditions: for Tumor vascularization, density of the vessels that irrigate the tumor (in words): topical 250 μg/mL; for Quantification of the Ki-67 labeling, Center 1 / Quantification of the Ki-67 labeling, Center 2 / Quantification of the Ki-67 labeling, Edge 1 / Quantification of the Ki-67 labeling, Edge 2: treated 48 hours; for Quantification of the Ki-67 labeling, Center 1 / Quantification of the Ki-67 labeling, Center 2: tumor center; for Quantification of the Ki-67 labeling, Edge 1 / Quantification of the Ki-67 labeling, Edge 2: tumor edge
Method: To obtain a tumor, the U87-MG cells are inoculated at a rate of 200,000 cells in 75-cm^2 flasks in the presence of a basal medium. A volume that contains 4.10^6 cells is then sampled, and after centrifuging for 5 minutes with 311 g, the supernatant is eliminated, and the cells are resuspended in 20 μL of differential medium that is deposited in the center of a silicone ring that was previously applied on the CAM of an embryo at ED9. Once the grafting is done, the embryo is set out to incubate. At ED11, the tumors can be observed under a MZFL3 binocular (Leica, Paris, France). At this stage, the tumors are either treated topically (apical part of the tumor) by 30 μL of the oligopeptide according to the invention at 250 μg/mL or else by 30 μL of sterile distilled water up to stage ED13. The tumors are then sampled, and cryosections are produced to make possible immunohistochemical analyses. […] The macroscopic observations of tumors as well as the diffusion of fluorescein into the vessels are made with a fluorescence binocular (MZFL3, Leica, France).
A volume that contains 4.10^6 cells is then sampled and after centrifuging for 5 minutes with 300 g, the supernatant is eliminated, and the cells are resuspended in 20 μL of differential medium that is deposited in the center of a silicone ring that was previously applied on the CAM of an embryo at ED9. Once the grafting has been done, the embryo is set out to incubate.
At ED11, the tumors can be observed under a MZFL3 binocular (Leica, Paris, France), and it is possible to track the change in the tumor growth up to ED14.
The tumors that are developed on the CAM are observed on the chorioallantoic membrane using a MZFL3-type binocular (Leica, France) before being sampled.
The vascular endothelium of the vessels of a chicken is labeled using a lectin, SNA-1 (Sambuccus Nigra Agglutinin-1, Vector Laboratories), coupled to FITC (fluorescein isothiocyanate).
After 10 minutes of attachment with 200 μL of 4% PBS 1X-PFA at ambient temperature, the sections are incubated with a solution of 0.05% TBS 1X-Tween-0.1% Trypsin, pH 7.6, for 10 minutes. They are then washed 3 times in PBS 1X, and 100 μL of a dilution with 1/200th of the SNA-1 lectin in a solution of 0.05% TBS 1X-Tween with pH 7.6 is applied for 1 hour. After washing cycles (the last of which is carried out with distilled water), the slides are then mounted as described in the preceding paragraph and observed with a fluorescence microscope. Counts of vessels were made from photos with a magnification ×100 and in a marginal zone spreading 600 μm from the edge of the tumor. An ANOVA-type statistical test was then carried out to validate the relevance of the effect observed. The SNA-1 lectin specifically labels the chicken endothelial cells that constitute the vascular wall.
The tumors are attached in 4% PBS 1X-PFA (24 hours) and then dehydrated in absolute ethanol and then in pure toluene and next are enclosed and preserved in a paraffin block. 4-μm sections are made from a microtome and deposited on Superfrost plus slides, and then dried in an oven at 50° C. for one night.
To carry out the immunolabeling, the sections are dewaxed and then rehydrated by baths of decreasing concentrations of ethanol and then rinsed in PBS 1X.
So as to unmask the antigenic sites, the slides are incubated in a citrate buffer with pH 7 (200 μM of citric acid; 9.8 mmol of sodium citrate) and undergo a heating cycle (4×5 minutes at 750 W in the microwave). The endogenic peroxidases are inhibited by carrying out a 10-minute bath in methanol-5%H2O2. After 3 washing cycles, the saturation of PBS-3% BSA and then the incubation with the anti-Ki67 antibody are carried out. After rinsing with PBS 1X, an HRP-conjugated secondary antibody is applied for 1 hour at ambient temperature. […] A counter-staining is carried out in hematoxylin, and the sections are mounted in an aqueous solution before being observed with a Leica DMRX microscope.

[4] = U87-MG tumor on CAM, listed as TSP1

Row | Substance | Mean RQ ANGPT1 [1] | Mean RQ ANGPT2 [1] | Mean RQ CD36 [1] | Mean RQ FGF2 [1] | Mean RQ ITGB1 [1] | Mean RQ KDR [1] | Mean RQ PDGFB [1] | Mean RQ PDGFRB [1] | Mean RQ PLAU [1] | Mean RQ TEK [1] | Mean RQ TIE-1 [1] | Mean RQ TIMP1 [1] | Mean RQ TIMP4 [1] | Mean RQ VEGFA [1] | Increase of expression of genes coding for the receptors (ITGB1, PDGFRβ, KDR, TIE-1, TIE-2, CD36) in relation to the control [1] | Protection of HBMEC from apoptosis (in words) [2] | also measured
1 | —W—S-G-W—S—S—C—S—R—S—C-G- (WSGWSSCSRSCG; Oligopeptide derived from SCO-Spondin) [NX] | 0.8241 | 0.6787 | 3.831 | 0.686 | 4.07 | 4.207 | 2.104 | 4.366 | 1.151 | 4.539 | 3.961 | 1.237 | 0.6552 | 1.298 | 4 factor | protects the HBMEC human endothelial cells from the apoptosis at a level similar to the VEGF | Time to disappearance of pinkish color (capillaries on the surface of the tumor) ([3]; CAM tumors 1 to 2 mm in diameter): ≤ 24 h; SNA-1 labeling of vessels on tumor sections ([3]; U87-MG tumor on CAM): the SNA-1 labeling disappears more specifically into the zone that is close to the surface of the tumor; Tumor vascularization, density of the vessels that irrigate the tumor (in words) ([3]; U87-MG tumor on CAM, listed as oligopeptide according to the invention): more effective than the TSP-1; also recorded: significant reduction in the density of the vessels that irrigate the tumor; Quantification of the Ki-67 labeling, Center 1 ([3]; U87-MG tumor on CAM): 355.5 and 369; Quantification of the Ki-67 labeling, Center 2 ([3]; U87-MG tumor on CAM): 383.5 and 370; Quantification of the Ki-67 labeling, Edge 1 ([3]; U87-MG tumor on CAM): 165 and 184; Quantification of the Ki-67 labeling, Edge 2 ([3]; U87-MG tumor on CAM): 172 and 153; Tumor cells expressing the vimentin ([3]; U87-MG tumor on CAM, vimentin/SNA-1 co-labeling): reduction in the number of differentiated tumor cells expressing the vimentin; Ki-67 labeling of tumor (in words) ([3]; tumors in the CAM model, peripheral zone): the peripheral zone does not express the Ki67 marker
2 | thrombospondin 1 [TSP, reference compound] | 0.5106 | 0.2678 | 2.965 | 0.3429 | 1.317 | 1.557 | 0.6327 | 2.544 | 1.491 | 1.385 | 1.79 | 0.4492 | 0.6642 | 0.5392 | on a lesser scale | this effect is not observed | Tumor vascularization, density of the vessels that irrigate the tumor (in words) ([3]; U87-MG tumor on CAM): produces the same effects but to a lesser degree; Quantification of the Ki-67 labeling, Center 1 [3, 4]: 300 and 233; Quantification of the Ki-67 labeling, Center 2 [3, 4]: 292 and 350; Quantification of the Ki-67 labeling, Edge 1 [3, 4]: 227 and 286; Quantification of the Ki-67 labeling, Edge 2 [3, 4]: 314 and 228
